# From publication PMC8205226, “HIV-1 Integrase Inhibitors with Modifications That Affect Their Potencies against Drug Resistant Integrase Mutants” (ACS Infectious Diseases, 2021)
# Read-outs that look alike come from different tables or passages of the source.
# How the values were obtained:
# HIV-1 IN mutant R231K = assay: single-round infectivity assay, R231K IN mutant; type: cell-based
# Description: (§1) Figure 5 Antiviral potencies of the new compounds against IN with mutations in the […]. The EC50 values were determined using a vector that carries the IN mutant in a single round infection assay. […] Error bars represent the standard deviations of independent experiments, n = 4, performed in triplicate.
# (§2) WT and mutant HIV-1 viral vectors were used in single-round infectivity assays to determine the antiviral potencies (EC50 values) of the compounds and the effects of the mutants on the EC50 values as previously described.[30],[54] Single round infectivity measurements were determined as done previously.[38]
# (§3) The vector pNLNgoMIVR-ΔENV.LUC has been described previously.[26] To produce the new IN mutants used in this study, the IN open reading frame was removed from pNLNgoMIVR-ΔENV.LUC by digestion with KpnI and SalI, and the resulting fragment was inserted between the KpnI and SalI sites of pBluescript KS+. Using that construct as the wild-type template, we prepared the following HIV-1 IN mutants using the QuikChange II XL site directed mutagenesis kit (Agilent Technologies, Santa Clara, CA) protocol: N117A, N117H, P142A, P142H, P142S, Y143C, Y143H, S230R, R231G, and R231K. The following sense oligonucleotides were used with matching cognate antisense oligonucleotides (not shown) (Integrated DNA Technologies, Coralville, IA) in the mutagenesis: N117A, 5′-[…]-3′; N117H, 5′-[…]-3′; P142A, 5′-[…]-3′; P142H, 5′-[…]-3′; P142S, 5′-[…]-3′; Y143C, 5′- […]-3′; Y143H, 5′-[…]-3′; S230R, 5′- […]-3′; R231G, 5′-[…]-3′; R231K, 5′-[…]-3′.
# HIV-1 IN mutant N117H = assay: single-round infectivity assay, N117H IN mutant; type: cell-based; conditions: for EC50: Human immunodeficiency virus 1, read-out: EC50 values N117H; for FC N117H: fold change in EC50, IN mutant versus WT HIV-1
# Description: (§4) The EC50 values were determined using a vector that carries the IN mutant in a single round infection assay. […] Error bars represent the standard deviations of independent experiments, n = 4, performed in triplicate.
# as §2, §3
# HIV-1 IN mutant S119R = assay: single-round infectivity assay, S119R IN mutant; type: cell-based; conditions: for EC50: Human immunodeficiency virus 1, read-out: EC50 values S119R; for FC S119R: fold change in EC50, IN mutant versus WT HIV-1
# Description: as §4, §2, §3
# HIV-1 IN mutant N155H [1] = conditions: single round infection; previously reported; cited from earlier work
# HIV-1 IN mutant G118R [2] = assay: single-round infectivity assay, G118R IN mutant; type: cell-based
# Description: as §4, §2, §3
# HIV-1 IN mutant N155H [3] = assay: single-round infectivity assay, N155H IN mutant; type: cell-based; conditions: for FC N155H: fold change in EC50, IN mutant versus WT HIV-1
# Description: (§5) Figure 2 Antiviral activities of the new compounds against RAL-resistant mutants. The EC50 values were determined using a vector that carries WT HIV-1 IN and the RAL-resistant mutants in a single round infection assay. […] Error bars represent the standard deviations of independent experiments, n = 4, performed in triplicate. The graph has a maximum value of 550 nM.
# as §2, §3
# HIV-1 IN mutant S230R = assay: single-round infectivity assay, S230R IN mutant; type: cell-based; conditions: for EC50: Human immunodeficiency virus 1, read-out: EC50 values S230R; for FC S230R: fold change in EC50, IN mutant versus WT HIV-1
# Description: as §1, §2, §3
# HIV-1 IN mutant Y143R [4] = assay: single-round infectivity assay, Y143R IN mutant; type: cell-based; conditions: for FC Y143R: fold change in EC50, IN mutant versus WT HIV-1
# Description: as §5, §2, §3
# HIV-1 IN mutant P142H = assay: single-round infectivity assay, P142H IN mutant; type: cell-based; conditions: for EC50: Human immunodeficiency virus 1, read-out: EC50 values P142H
# Description: as §4
# Single round infectivity measurements were determined as done previously.[38]
# as §3
# HIV-1 IN mutant Y143H = assay: single-round infectivity assay, Y143H IN mutant; type: cell-based; conditions: for FC Y143H: fold change in EC50, IN mutant versus WT HIV-1
# Description: as §4, with “Figure 4 Mutations in the β5-α3 loop affect the antiviral potencies of the new compounds. The” for “The”
# as §2, §3
# HIV-1 IN mutant G118R [5] = conditions: single round infection; previously shown; cited from earlier work
# HIV-1 IN mutant Y143R [6] = conditions: single round infection; previously reported; cited from earlier work
# WT HIV-1 = conditions: vector carrying WT HIV-1 IN, single round infection; previously reported; cited from earlier work
# [7] = tested on: HIV-1 IN double mutant G140S/Q148H; conditions: single round infection; previously reported; cited from earlier work
# HIV-1 IN mutant P142A = assay: single-round infectivity assay, P142A IN mutant; type: cell-based; conditions: for EC50: Human immunodeficiency virus 1, read-out: EC50 values P142A; for FC P142A: fold change in EC50, IN mutant versus WT HIV-1
# Description: as §4, with “Figure 4 Mutations in the β5-α3 loop affect the antiviral potencies of the new compounds. The” for “The”
# as §2, §3
# HIV-1 IN mutant R231G = assay: single-round infectivity assay, R231G IN mutant; type: cell-based; conditions: for EC50: Human immunodeficiency virus 1, read-out: EC50 values R231G; for FC R231G: fold change in EC50, IN mutant versus WT HIV-1
# Description: as §1, §2, §3
# HIV-1 IN mutant Y143C = assay: single-round infectivity assay, Y143C IN mutant; type: cell-based; conditions: for FC Y143C: fold change in EC50, IN mutant versus WT HIV-1
# Description: as §4, with “Figure 4 Mutations in the β5-α3 loop affect the antiviral potencies of the new compounds. The” for “The”
# as §2, §3
# HIV-1 IN mutant N117A = assay: single-round infectivity assay, N117A IN mutant; type: cell-based; conditions: for EC50: Human immunodeficiency virus 1, read-out: EC50 values N117A; for FC N117A: fold change in EC50, IN mutant versus WT HIV-1
# Description: as §4, §2, §3
# HIV-1 IN mutant P142S = assay: single-round infectivity assay, P142S IN mutant; type: cell-based; conditions: for EC50: Human immunodeficiency virus 1, read-out: EC50 values P142S; for FC P142S: fold change in EC50, IN mutant versus WT HIV-1
# Description: as §4, with “Figure 4 Mutations in the β5-α3 loop affect the antiviral potencies of the new compounds. The” for “The”
# as §2, §3
# [8] = tested on: HIV-1 IN double mutant G140S/Q148H; assay: single-round infectivity assay, G140S/Q148H IN double mutant; type: cell-based; conditions: for FC G140S/Q148H: fold change in EC50, IN mutant versus WT HIV-1
# Description: as §5, §2, §3
# [9] = fold change in EC50, IN mutant versus WT HIV-1
# [10] = Human immunodeficiency virus 1, read-out: EC50 values Y143H, single round infection, n = 4
# [11] = read-out: EC50 values Y143H, single round infection, n = 4
smiles,measurement,setting,value
Nc1c(C(=O)NCc2ccc(F)cc2F)c(=O)n(O)c2ncc(CCCCCCO)cc12 [4d],ratio of the EC50s (our compound relative to DTG) against R231K,HIV-1 IN mutant R231K; EC50 compound / EC50 DTG,0.6
same,ratio of the EC50s (our compound relative to DTG) against N117H,HIV-1 IN mutant N117H; EC50 compound / EC50 DTG,1.3
same,EC50,HIV-1 IN mutant N117H,3 nM
same,FC N117H,HIV-1 IN mutant N117H,1.3
same,ratio of the EC50s (our compound relative to DTG) against S119R,HIV-1 IN mutant S119R; EC50 compound / EC50 DTG,0.9
same,EC50,HIV-1 IN mutant S119R,2.1 ± 0.1 nM
same,FC S119R,HIV-1 IN mutant S119R,0.9
same,EC50,HIV-1 IN mutant N155H [1],2.7 ± 1 nM
same,ratio of the EC50s (our compound relative to DTG) against G118R,HIV-1 IN mutant G118R [2]; EC50 compound / EC50 DTG,0.5
same,FC G118R,HIV-1 IN mutant G118R [2]; [9],2.8
same,ratio of the EC50s (our compound relative to DTG) against N155H,HIV-1 IN mutant N155H [3]; EC50 compound / EC50 DTG,0.8
same,FC N155H,HIV-1 IN mutant N155H [3],1.2
same,ratio of the EC50s (our compound relative to DTG) against S230R,HIV-1 IN mutant S230R; EC50 compound / EC50 DTG,0.8
same,EC50,HIV-1 IN mutant S230R,3.8 ± 0.3 nM
same,FC S230R,HIV-1 IN mutant S230R,1.7
same,ratio of the EC50s (our compound relative to DTG) against Y143R,HIV-1 IN mutant Y143R [4]; EC50 compound / EC50 DTG,0.5
same,FC Y143R,HIV-1 IN mutant Y143R [4],0.9
same,ratio of the EC50s (our compound relative to DTG) against P142H,HIV-1 IN mutant P142H; EC50 compound / EC50 DTG,0.5
same,EC50,HIV-1 IN mutant P142H,1.5 ± 0.1 nM
same,FC P142H,HIV-1 IN mutant P142H; [9],0.7
same,ratio of the EC50s (our compound relative to DTG) against Y143H,HIV-1 IN mutant Y143H; EC50 compound / EC50 DTG,0.8
same,EC50,HIV-1 IN mutant Y143H; [10],1.5 ± 0.1 nM
same,FC Y143H,HIV-1 IN mutant Y143H,0.7
same,EC50,HIV-1 IN mutant Y143H; [11],< 3 nM
same,EC50,HIV-1 IN mutant G118R [5],6.4 ± 2.5 nM
same,EC50,HIV-1 IN mutant Y143R [6],2.1 ± 1.4 nM
same,EC50,WT HIV-1,2.3 ± 0.6 nM
same,EC50,[7],9.4 ± 3.6 nM
same,ratio of the EC50s (our compound relative to DTG) against P142A,HIV-1 IN mutant P142A; EC50 compound / EC50 DTG,0.8
same,EC50,HIV-1 IN mutant P142A,2.1 ± 0.3 nM
same,FC P142A,HIV-1 IN mutant P142A,0.9
same,ratio of the EC50s (our compound relative to DTG) against R231G,HIV-1 IN mutant R231G; EC50 compound / EC50 DTG,0.9
same,EC50,HIV-1 IN mutant R231G,1.3 ± 0.2 nM
same,FC R231G,HIV-1 IN mutant R231G,0.6
same,ratio of the EC50s (our compound relative to DTG) against Y143C,HIV-1 IN mutant Y143C; EC50 compound / EC50 DTG,0.9
same,FC Y143C,HIV-1 IN mutant Y143C,0.5
same,ratio of the EC50s (our compound relative to DTG) against N117A,HIV-1 IN mutant N117A; EC50 compound / EC50 DTG,1.2
same,EC50,HIV-1 IN mutant N117A,0.6 nM
same,FC N117A,HIV-1 IN mutant N117A,0.3
same,ratio of the EC50s (our compound relative to DTG) against P142S,HIV-1 IN mutant P142S; EC50 compound / EC50 DTG,0.5
same,EC50,HIV-1 IN mutant P142S,1.2 ± 0.2 nM
same,FC P142S,HIV-1 IN mutant P142S,0.5
same,ratio of the EC50s (our compound relative to DTG) against G140S/Q148H,[8]; EC50 compound / EC50 DTG,1.6
same,FC G140S/Q148H,[8],4.1
"C[C@@H]1CCO[C@H]2Cn3cc(C(=O)NCc4ccc(F)cc4F)c(=O)c(O)c3C(=O)N12 [DTG, dolutegravir, reference compound]",EC50,"HIV-1 IN mutant R231K; Human immunodeficiency virus 1, read-out: EC50 values R231K, single round infection, n = 4",4.2 ± 0.2 nM
same,EC50,"HIV-1 IN mutant R231K; read-out: EC50 values R231K, single round infection, n = 4",< 5 nM
same,EC50,HIV-1 IN mutant N117H,2.4 nM
same,FC N117H,HIV-1 IN mutant N117H,1.5
same,EC50,HIV-1 IN mutant S119R,2.3 ± 0.6 nM
same,FC S119R,HIV-1 IN mutant S119R,1.4
same,EC50,HIV-1 IN mutant N155H [1],3.6 ± 1.3 nM
same,FC N155H,HIV-1 IN mutant N155H [3],2.3
same,EC50,HIV-1 IN mutant S230R,4.6 ± 0.7 nM
same,FC S230R,HIV-1 IN mutant S230R,2.9
same,FC Y143R,HIV-1 IN mutant Y143R [4],2.7
same,EC50,HIV-1 IN mutant P142H,2.8 ± 0.7 nM
same,EC50,HIV-1 IN mutant Y143H; [10],2.2 ± 0.2 nM
same,FC Y143H,HIV-1 IN mutant Y143H,1.4
same,EC50,HIV-1 IN mutant Y143H; [11],< 3 nM
same,EC50,HIV-1 IN mutant G118R [5],13 ± 5 nM
same,EC50,HIV-1 IN mutant Y143R [6],4.3 ± 1.2 nM
same,EC50,WT HIV-1,1.6 ± 0.9 nM
same,EC50,[7],5.8 ± 0.5 nM
same,EC50,HIV-1 IN mutant P142A,2.5 ± 0.5 nM
same,FC P142A,HIV-1 IN mutant P142A,1.6
same,EC50,HIV-1 IN mutant R231G,1.4 ± 0.2 nM
same,FC R231G,HIV-1 IN mutant R231G,0.9
same,FC Y143C,HIV-1 IN mutant Y143C,0.9
same,EC50,HIV-1 IN mutant N117A,0.5 nM
same,FC N117A,HIV-1 IN mutant N117A,0.3
same,EC50,HIV-1 IN mutant P142S,2.2 ± 0.1 nM
same,FC P142S,HIV-1 IN mutant P142S,1.4
same,FC G140S/Q148H,[8],3.6
